Experiments:
[1] = system: SR; test: NCI 60 cell line five dose, Leukemia
[2] = system: LOX IMVI; test: NCI 60 cell line five dose, Melanoma
[3] = system: MALME-3M; test: NCI 60 cell line five dose, Melanoma; details: MALME-3M
[4] = system: UACC-257; test: NCI 60 cell line five dose, Melanoma
[5] = system: SF-295; test: NCI 60 cell line five dose, CNS Cancer
[6] = system: SF-539; test: NCI 60 cell line five dose, CNS Cancer
[7] = system: U251; test: NCI 60 cell line five dose, CNS Cancer
[8] = system: COLO 205; test: NCI 60 cell line five dose, Colon Cancer
[9] = system: HCC-2998; test: NCI 60 cell line five dose, Colon Cancer
[10] = system: HCT-116; test: NCI 60 cell line five dose, Colon Cancer
[11] = system: A498; test: NCI 60 cell line five dose, Renal Cancer
[12] = system: CAKI-1; test: NCI 60 cell line five dose, Renal Cancer
[13] = system: SN12C; test: NCI 60 cell line five dose, Renal Cancer
[14] = system: TK-10; test: NCI 60 cell line five dose, Renal Cancer
[15] = system: BT-549; test: NCI 60 cell line five dose, Breast Cancer
[16] = system: T-47D; test: NCI 60 cell line five dose, Breast Cancer
[17] = system: OVCAR-3; test: NCI 60 cell line five dose, Ovarian Cancer
[18] = system: OVCAR-4; test: NCI 60 cell line five dose, Ovarian Cancer
[19] = system: NCI/ADR-RES; test: NCI 60 cell line five dose, Ovarian Cancer; details: NCI/ADR-RES
[20] = system: A549/ATCC; test: NCI 60 cell line five dose, Non-Small Cell Lung Cancer
[21] = system: HOP-92; test: as above
[22] = system: NCI-H226; test: as above
[23] = system: NCI-H23; test: as above
[24] = system: NCI-H460; test: as above

## C=C1C(=O)O[C@H]2[C@H]1CC/C(COC(=O)NCCCCCNC(=O)OC/C1=C/CC[C@@]3(C)O[C@H]3[C@H]3OC(=O)C(=C)[C@@H]3CC1)=C\CC[C@@]1(C)O[C@@H]21 [JVM 2-76, bis(((1aR,7aS,10aS,10bS,E)-1a-Methyl-8-methylene-9-oxo-1a,2,3,6,7,7a,8,9,10a,10b-decahydrooxireno[2′,3′:9,10]cyclodeca[1,2-b]furan-5-yl)methyl)pentane-1,5-diyldicarbamate]
[1]
  GI50: 380 nM
  TGI: 2.30 µM
[1]; read-out: LC50
  CC50: > 100 µM
[2]
  GI50: 460 nM
  TGI: 1.85 µM
[2]; read-out: LC50
  CC50: 5.82 µM
[3]
  GI50: 2060 nM
  TGI: 5.24 µM
[3]; read-out: LC50
  CC50: 27.3 µM
[4]
  GI50: 2070 nM
  TGI: 7.46 µM
[4]; read-out: LC50
  CC50: 42.4 µM
[5]
  GI50: 11.1 µM
  TGI: 26.9 µM
[5]; read-out: LC50
  CC50: 65.2 µM
[6]
  GI50: 1920 nM
  TGI: 4.56 µM
[6]; read-out: LC50
  CC50: 12.7 µM
[7]
  GI50: 3.51 µM
  TGI: 13.7 µM
[7]; read-out: LC50
  CC50: 51.5 µM
[8]
  GI50: 520 nM
  TGI: 2.33 µM
[8]; read-out: LC50
  CC50: 7.97 µM
[9]
  GI50: 6.71 µM
  TGI: 20.7 µM
[9]; read-out: LC50
  CC50: 53.9 µM
[10]
  GI50: 540 nM
  TGI: 1.86 µM
[10]; read-out: LC50
  CC50: 4.56 µM
[11]
  GI50: 6.24 µM
  TGI: 19.4 µM
[11]; read-out: LC50
  CC50: 47.5 µM
[12]
  GI50: 16.1 µM
  TGI: 33.1 µM
[12]; read-out: LC50
  CC50: 68.1 µM
[13]
  GI50: 2490 nM
  TGI: 10.7 µM
[13]; read-out: LC50
  CC50: 45.5 µM
[14]
  GI50: 1820 nM
  TGI: 4.40 µM
[14]; read-out: LC50
  CC50: 11.8 µM
[15]
  GI50: 1000 nM
  TGI: 2.23 µM
[15]; read-out: LC50
  CC50: 4.96 µM
[16]
  GI50: 1600 nM
  TGI: 5.73 µM
[16]; read-out: LC50
  CC50: > 100 µM
[17]
  GI50: 760 nM
  TGI: 2.13 µM
[17]; read-out: LC50
  CC50: 5.07 µM
[18]
  GI50: 2720 nM
  TGI: 15.2 µM
[18]; read-out: LC50
  CC50: 41.9 µM
[19]
  GI50: 70 µM
  TGI: >100 µM
[19]; read-out: LC50
  CC50: > 100 µM
[20]
  GI50: 14.9 µM
  TGI: 32.7 µM
[20]; read-out: LC50
  CC50: 71.7 µM
[21]
  GI50: 1300 nM
  TGI: 3.35 µM
[21]; read-out: LC50
  CC50: 8.61 µM
[22]
  GI50: 2560 nM
  TGI: 8.18 µM
[22]; read-out: LC50
  CC50: 30.9 µM
[23]
  GI50: 2660 nM
  TGI: 7.71 µM
[23]; read-out: LC50
  CC50: 45.5 µM
[24]
  GI50: 4.34 µM
  TGI: 16.2 µM
[24]; read-out: LC50
  CC50: 50.7 µM

Source: patent publication US10118935B2, “Melampomagnolide B dimers” (priority 2014, dated 2018)
